Results on two compounds are retold here after patent US5602153A, “Method of using 1-arylheteroarylalkyl substituted-1H-1,2,4-triazole compounds for treatment of a giaucoma disorder” (G.D. Searle & Co., priority 1993, dated 1997).

For assay [1], the target named is T1, rabbit aortic rings (Oryctolagus cuniculus, UniProt P34976).
T1 construct: The thoracic aorta was removed, cleaned of adherent fat and connective tissue; from tissue; host or cells: thoracic aorta rings, endothelium removed, male New Zealand white rabbit
T1 sequence (P34976 1-359): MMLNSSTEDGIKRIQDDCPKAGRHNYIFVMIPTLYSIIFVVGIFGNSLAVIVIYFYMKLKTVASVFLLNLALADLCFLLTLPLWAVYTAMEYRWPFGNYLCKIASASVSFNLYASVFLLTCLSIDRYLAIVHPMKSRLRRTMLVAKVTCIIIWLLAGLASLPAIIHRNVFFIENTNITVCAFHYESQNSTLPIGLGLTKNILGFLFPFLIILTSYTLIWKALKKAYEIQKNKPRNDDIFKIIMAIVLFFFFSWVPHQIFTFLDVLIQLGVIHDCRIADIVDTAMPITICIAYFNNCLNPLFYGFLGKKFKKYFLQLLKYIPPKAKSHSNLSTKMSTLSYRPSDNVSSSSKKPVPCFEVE
In words: Assay B: In Vitro Vascular Smooth Muscle-Response for AII (antagonist activity in rabbit aortic rings). It counts as cell-based, rabbit (male New Zealand white). The settings on record: antagonist 10^-5 M for 5 min, AII challenge. As for the experimental part: Assay B: In Vitro Vascular Smooth Muscle-Response for AII The compounds of the invention were tested for antagonist activity in rabbit aortic rings. Male New Zealand white rabbits (2-2.5 kg) were sacrificed using an overdose of pentobarbital and exsanguinated via the carotid arteries. The thoracic aorta was removed, cleaned of adherent fat and connective tissue and then cut into 3-mm ring segments. The endothelium was removed from the rings by gently sliding a rolled-up piece of filter paper into the vessel lumen. The rings were then mounted in a water-jacketed tissue bath, maintained at 37° C., between moveable and fixed ends of a stainless steel wire with the moveable end attached to an FT03 Grass transducer coupled to a Model 7D Grass Polygraph for recording isometric force responses. The bath was filled with 20 ml of oxygenated (95% oxygen/5% carbon dioxide) Krebs solution of the following composition (mM): 130 NaCl, 15 NaHCO3, 15 KCl, 1.2 NaH2 PO4, 1.2 MgSO4, 2.5 CaCl2, and 11.4 glucose. The preparations were equilibrated for one hour before approximately one gram of passive tension was placed on the rings. Angiotensin II concentration-response curves were then recorded (3×10^-10 to 1×10^-5 M). Each concentration of AII was allowed to elicit its maximal contraction, and then AII was washed out repeatedly for 30 minutes before rechallenging with a higher concentration of AII. Aorta rings were exposed to the test antagonist at 10^-5 M for 5 minutes before challenging with AII. Adjacent segments of the same aorta ring were used for all concentration-response curves in the presence or absence of the test antagonist. The effectiveness of the test compound was expressed in terms of pA2 values and were calculated according to H.O. Schild [Br. J. Pharmacol. Chemother., 2, 189-206 (1947)]. The pA2 value is the concentration of the antagonist which increases the EC50 value for AII by a factor of two. Each test antagonist was evaluated in aorta rings from two rabbits.

The test system of assay [2] is pressor response to AII. Kind of assay: Assay C: In Vivo Intragastric Pressor Assay Response for AII Antagonists. The settings on record: po; 3 mg/kg i.g., rat, AII 30 ng/kg bolus. Also on record: species or system rat (male Sprague-Dawley). On the procedure: Assay C: In Vivo Intragastric Pressor Assay Response for AII Antagonists of the Invention
Male Sprague-Dawley rats weighing 225-300 grams were anesthetized with methohexital (30 mg/kg, i.p.) and catheters were implanted into the femoral artery and vein. The catheters were tunneled subcutaneously to exit dorsally, posterior to the head and between the scapulae. The catheters were filled with heparin (1000 units/ml of saline). The rats were returned to their cage and allowed regular rat chow and water ad libitum. After full recovery from surgery (3-4 days), rats were placed in Lucite holders and the arterial line was connected to a pressure transducer. Arterial pressure was recorded on a Gould polygraph (mmHg). Angiotensin II was administered as a 30 ng/kg bolus via the venous catheter delivered in a 50 μl volume with a 0.2 ml saline flush. The pressor response in mmHg was measured by the difference from pre-injectionarterial pressure to the maximum pressure achieved. The AII injection was repeated every 10 minutes until three consecutive injections yielded responses within 4 mmHg of each other. These three responses were then averaged and represented the control response to AII. The test compound was suspended in 0.5% methylcellulose in water and was administered by gavage. The volume administered was 2 ml/kg body weight. The standard dose was 3 mg/kg. Angiotensin II bolus injections were given at 30, 45, 60, 75, 120, 150, and 180 minutes after gavage. The pressor response to AII was measured at each time point. The rats were then returned to their cage for future testing. A minimum of 3 days was allowed between tests. Percent inhibition was calculated for each time point following gavage by the following formula: [(Control Response-Response at time point)/Control Response]×100.

[3] abbreviates: first of two rabbits, read-out: pA2 (first value) (converted).
The mark [4] stands for this setting: second of two rabbits, read-out: pA2 (converted).

Structures are written as SMILES. Read-outs that look alike come from different tables or passages of the source.

One may read the inhibition in vivo as the change of the read-out against control, counted positive when it falls. Low values mean a weak effect, high ones a strong effect. On to `CCCCc1nc(CCCC)n(Cc2ccc(-c3ccccc3-c3nnn[nH]3)cn2)n1` [Example 1, 5-[2-[6-[(3,5-dibutyl-1H-1,2,4-triazol-1-yl)methyl]-3-pyridinyl]phenyl]-1H-tetrazole], for which the Kb is 13.2 nM in assay [1] (setting [3]) and 9.77 nM in assay [1] (setting [4]). Also, in assay [2], 3 mg/kg produced 20% inhibition in vivo.
The like results for `CCCCc1nc(CCCC)n(Cc2ccc(-c3ccccc3-c3nnn[nH]3)nc2)n1` [Example 3, 5-[2-[5-[(3,5-dibutyl-1H-1,2,4-triazol-1-yl)methyl]-2-pyridinyl]phenyl]-1H-tetrazole] were, in that order, 2.69 nM, 5.75 nM and 40%.
